ChEMBL document CHEMBL5303573, “Mapping human microbiome drug metabolism by gut bacteria and their genes” (Nature, 2019)

Columns and labels:
[1] = bacteroides thetaiotaomicron, 12 h, 2 µM
[2] = The drug is tested on Providencia alcalifaciens strain: DSM30120 for biotransformation. The drug concentrations were measured before and after a 12-h incubation by liquid-chromatography-coupled mass spectrometry (LC–MS); details: 2 µM
[3] = The drug is tested on Proteus penneri strain: ATCC35198 for biotransformation. The drug concentrations were measured before and after a 12-h incubation by liquid-chromatography-coupled mass spectrometry (LC–MS); details: 2 µM
[4] = victivallis vadensis, 12 h, 2 µM
[5] = The drug is tested on Eubacterium biforme strain: DSM3989 for biotransformation. The drug concentrations were measured before and after a 12-h incubation by liquid-chromatography-coupled mass spectrometry (LC–MS); details: holdemanella biformis, 2 µM
[6] = The drug is tested on Bacteroides xylanisolvens strain: DSM18836 for biotransformation. The drug concentrations were measured before and after a 12-h incubation by liquid-chromatography-coupled mass spectrometry (LC–MS); details: 2 µM
[7] = The drug is tested on Salmonella typhimurium strain: LT2 for biotransformation. The drug concentrations were measured before and after a 12-h incubation by liquid-chromatography-coupled mass spectrometry (LC–MS); details: salmonella enterica subsp. enterica, 2 µM
[8] = The drug is tested on Anaerococcus hydrogenalis strain: DSM7454 for biotransformation. The drug concentrations were measured before and after a 12-h incubation by liquid-chromatography-coupled mass spectrometry (LC–MS); details: 2 µM
[9] = The drug is tested on Bacteroides fragilis strain: T(B)9 for biotransformation. The drug concentrations were measured before and after a 12-h incubation by liquid-chromatography-coupled mass spectrometry (LC–MS); details: 2 µM
[10] = The drug is tested on Clostridium spiroforme strain: DSM1552 for biotransformation. The drug concentrations were measured before and after a 12-h incubation by liquid-chromatography-coupled mass spectrometry (LC–MS); details: thomasclavelia spiroformis, 2 µM
[11] = The drug is tested on Escherichia coli strain: BW25113 for biotransformation. The drug concentrations were measured before and after a 12-h incubation by liquid-chromatography-coupled mass spectrometry (LC–MS); details: 2 µM
[12] = clostridioides difficile, 12 h, 2 µM
Description: The drug is tested on Clostridium difficile strain: 120 for biotransformation. The drug concentrations were measured before and after a 12-h incubation by liquid-chromatography-coupled mass spectrometry (LC–MS)

[13] = The drug is tested on Eubacterium ventriosum strain: ATCC27560 for biotransformation. The drug concentrations were measured before and after a 12-h incubation by liquid-chromatography-coupled mass spectrometry (LC–MS); assay type: ADME; set-up: dose 2 uM, timepoint 0 vs 12 hours; details: 2 µM
[14] = The drug is tested on Clostridium hathewayi strain: DSM13479 for biotransformation. The drug concentrations were measured before and after a 12-h incubation by liquid-chromatography-coupled mass spectrometry (LC–MS); details: hungatella hathewayi, 2 µM
[15] = The drug is tested on Eggerthella lenta strain: ATCC25559 for biotransformation. The drug concentrations were measured before and after a 12-h incubation by liquid-chromatography-coupled mass spectrometry (LC–MS); details: 2 µM

Bacterial Biotransformation [1]	Bacterial Biotransformation [2]	Bacterial Biotransformation [3]	Bacterial Biotransformation [4]	Bacterial Biotransformation [5]	Bacterial Biotransformation [6]	Bacterial Biotransformation [7]	Bacterial Biotransformation [8]	Bacterial Biotransformation [9]	Bacterial Biotransformation [10]	Bacterial Biotransformation [11]	Bacterial Biotransformation [12]	Bacterial Biotransformation [13]	Bacterial Biotransformation [14]	Bacterial Biotransformation [15]	Structure (SMILES)
Compound NOT metabolized	Compound NOT metabolized	–	–	Compound NOT metabolized	Compound NOT metabolized	Compound NOT metabolized	Compound NOT metabolized	Compound metabolized	Compound NOT metabolized	Compound NOT metabolized	Compound NOT metabolized	Compound NOT metabolized	Compound NOT metabolized	–	Cc1nc(-c2ccc(OCC(C)C)c(C#N)c2)sc1C(=O)O [FEBUXOSTAT]
–	Compound NOT metabolized	Compound NOT metabolized	Compound NOT metabolized	Compound NOT metabolized	–	Compound NOT metabolized	Compound NOT metabolized	–	–	Compound NOT metabolized	–	Compound NOT metabolized	Compound NOT metabolized	–	OCCOCCN1CCN(C2=Nc3ccccc3Sc3ccccc32)CC1 [QUETIAPINE]
Compound NOT metabolized	–	Compound NOT metabolized	Compound NOT metabolized	Compound NOT metabolized	–	–	Compound NOT metabolized	Compound NOT metabolized	Compound NOT metabolized	Compound NOT metabolized	–	Compound NOT metabolized	Compound NOT metabolized	–	CN1C(C(=O)Nc2ccccn2)=C(O)c2sccc2S1(=O)=O [TENOXICAM]

More lines, now with the values behind:

Structure (SMILES)	Bacterial Biotransformation [1]	Bacterial Biotransformation [2]	Bacterial Biotransformation [3]	Bacterial Biotransformation [4]	Bacterial Biotransformation [5]	Bacterial Biotransformation [6]	Bacterial Biotransformation [7]	Bacterial Biotransformation [8]	Bacterial Biotransformation [9]	Bacterial Biotransformation [10]	Bacterial Biotransformation [11]	Bacterial Biotransformation [12]	Bacterial Biotransformation [13]	Bacterial Biotransformation [14]	Bacterial Biotransformation [15]
COc1ccc(CCN(C)CCCC(C#N)(c2ccc(OC)c(OC)c2)C(C)C)cc1OC (centres undefined)	Compound metabolized	Compound NOT metabolized	Compound NOT metabolized	Compound NOT metabolized	Compound NOT metabolized	Compound metabolized	Compound metabolized	Compound NOT metabolized	Compound NOT metabolized	–	–	–	–	–	–
COC1=CC(=O)C[C@@H](C)[C@]12Oc1c(Cl)c(OC)cc(OC)c1C2=O [GRISEOFULVIN]	Compound NOT metabolized	–	Compound NOT metabolized	Compound NOT metabolized	–	Compound metabolized	Compound NOT metabolized	Compound NOT metabolized	Compound metabolized	–	–	–	Compound NOT metabolized	Compound NOT metabolized	Compound NOT metabolized
OC(CCN1CCCCC1)(c1ccccc1)C1CCCCC1 (centres undefined) [TRIHEXYPHENIDYL]	–	Compound NOT metabolized	Compound NOT metabolized	–	Compound NOT metabolized	Compound NOT metabolized	–	Compound NOT metabolized	–	Compound NOT metabolized	Compound NOT metabolized	–	Compound NOT metabolized	–	–
N#Cc1ccc2[nH]cc(CCCCN3CCN(c4ccc5oc(C(N)=O)cc5c4)CC3)c2c1 [VILAZODONE]	Compound metabolized	Compound NOT metabolized	Compound NOT metabolized	–	Compound NOT metabolized	Compound metabolized	Compound NOT metabolized	Compound NOT metabolized	Compound metabolized	Compound metabolized	–	–	Compound NOT metabolized	Compound NOT metabolized	–
